Here are results for twelve compounds from PubChem BioAssay (NCI).

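Growth conditions: 96-well plates. Treatment: test compound, 48 hours, 5 concentrations. Analysis: linear interpolation between bracketing concentrations; unreached endpoints set to highest concentration. GI50 = concentration required for 50% inhibition of growth. The concentration for full growth arrest is given as TGI.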

Among the test systems are BT-549 breast; CAKI-1 renal; DU-145 prostate; KM12 colon; MDA-MB-231 breast; OVCAR-3 ovarian; SK-OV-3 ovarian; SNB-75 CNS; T-47D breast; U251 CNS.
Test in all cases: inhibition of tumour cell growth, NCI panel, 48 h

As to `O=C(NNS(=O)(=O)c1ccc(Cl)cc1Cl)c1cccnc1Nc1ccc(Cl)cc1`, the GI50 was 16.8 µM with BT-549 breast; 19.8 µM in the experiment with CAKI-1 renal; 41.8 µM with DU-145 prostate; 13.8 µM with KM12 colon; 19 µM with MDA-MB-231 breast; 20.6 µM with OVCAR-3 ovarian. Also, the GI50 was 17.1 µM with SK-OV-3 ovarian, 22.4 µM in the experiment on SNB-75 CNS, 10.8 µM in the experiment with T-47D breast and 34.4 µM in the experiment on U251 CNS. Further, the TGI in the experiment with BT-549 breast is 35 µM; in the experiment with CAKI-1 renal, 58.7 µM; in the experiment on DU-145 prostate it was > 100 µM; with KM12 colon, 28.6 µM; in the experiment on MDA-MB-231 breast, 50.7 µM; with OVCAR-3 ovarian, > 100 µM. Moreover, the TGI is 52.4 µM in the experiment on SK-OV-3 ovarian, 84.4 µM with SNB-75 CNS, 50.7 µM in the experiment on T-47D breast and > 100 µM with U251 CNS.

Take `Clc1ccc(C2ON=C(c3ccccc3)N2C23CC4CC(CC(C4)C2)C3)cc1` (stereo not given): the TGI in the experiment with BT-549 breast, with CAKI-1 renal, in the experiment with DU-145 prostate, in the experiment with KM12 colon, in the experiment with MDA-MB-231 breast and in the experiment on OVCAR-3 ovarian was > 10 µM throughout. The TGI with SK-OV-3 ovarian, in the experiment with SNB-75 CNS, with T-47D breast and in the experiment on U251 CNS was > 10 µM each time.

For the compound `COc1ccc(C(=O)/C=C/c2ccc(OCC#N)cc2)cc1`, the TGI in the experiment on BT-549 breast was 31.6 µM; in the experiment on CAKI-1 renal, 42 µM; with DU-145 prostate, 81.7 µM; in the experiment on KM12 colon it was 32.6 µM; with MDA-MB-231 breast, 72.5 µM; in the experiment with OVCAR-3 ovarian, > 100 µM. For the same compound, the TGI was > 100 µM with SK-OV-3 ovarian, > 100 µM in the experiment on SNB-75 CNS, 46 µM in the experiment with T-47D breast and 32.5 µM in the experiment on U251 CNS.

As for `Cc1[nH]nc(-c2ccon2)c1N=O`, the TGI in the experiment with BT-549 breast amounted to 38 µM; in the experiment with CAKI-1 renal, 60.5 µM; in the experiment on DU-145 prostate, 41.2 µM; in the experiment with KM12 colon it was 38.4 µM; in the experiment on MDA-MB-231 breast, 32.4 µM; in the experiment with OVCAR-3 ovarian, 33.7 µM. Besides, the TGI in the experiment with SK-OV-3 ovarian is 89.2 µM; with SNB-75 CNS, > 100 µM; in the experiment on T-47D breast, 60.5 µM; in the experiment on U251 CNS, 32.8 µM.

Regarding `CN1CCc2nc3sc(C(N)=O)c(N)c3c(-c3cccs3)c2C1`, the GI50 with BT-549 breast was 3.26 µM; in the experiment on CAKI-1 renal it was 2.82 µM; with DU-145 prostate, 3.91 µM; in the experiment on KM12 colon, 2.7 µM; in the experiment with MDA-MB-231 breast, 4.77 µM; in the experiment with OVCAR-3 ovarian it was 2.16 µM. In addition, the GI50 was 3.35 µM in the experiment on SK-OV-3 ovarian, 2.81 µM in the experiment with SNB-75 CNS, 2.81 µM in the experiment with T-47D breast and 3.18 µM in the experiment with U251 CNS. In addition, the TGI with BT-549 breast is 35.5 µM; in the experiment on CAKI-1 renal, > 100 µM; in the experiment with DU-145 prostate it was 86.9 µM; in the experiment with KM12 colon, > 100 µM; in the experiment with MDA-MB-231 breast, > 100 µM; in the experiment on OVCAR-3 ovarian, 6.23 µM. Moreover, the TGI in the experiment on SK-OV-3 ovarian is > 100 µM; in the experiment with SNB-75 CNS it was 8.03 µM; with T-47D breast, > 100 µM; in the experiment with U251 CNS, > 100 µM.

On to `C[C@@H]1O[C@@H](O[C@@H]2[C@@H](O)[C@H](OCCc3ccc(O)c(O)c3)O[C@H](CO)[C@H]2OC(=O)/C=C/c2ccc(O)c(O)c2)[C@H](O)[C@H](OC2OC[C@](O)(CO)[C@H]2O)[C@H]1O` (stereo not given in full), for which the GI50 with BT-549 breast was 12 µM; with CAKI-1 renal it was 24.8 µM; in the experiment on DU-145 prostate, 16.9 µM; in the experiment with KM12 colon, > 100 µM; in the experiment with MDA-MB-231 breast, > 100 µM; with OVCAR-3 ovarian, 35 µM. Also, the GI50 in the experiment with SK-OV-3 ovarian, in the experiment with SNB-75 CNS, in the experiment on T-47D breast and with U251 CNS was > 100 µM in each case. The TGI in the experiment on BT-549 breast was 27.2 µM; with CAKI-1 renal, 42.5 µM; in the experiment with DU-145 prostate, 48 µM; in the experiment with KM12 colon, > 100 µM; in the experiment on MDA-MB-231 breast it was > 100 µM; in the experiment on OVCAR-3 ovarian, > 100 µM. Besides, the TGI in the experiment with SK-OV-3 ovarian, in the experiment on SNB-75 CNS, in the experiment with T-47D breast and with U251 CNS was > 100 µM throughout.

As to `COc1cc2c(cc1F)C(c1ccccc1Cl)=Nc1c(n[nH]c1C)N2`, the GI50 is 2.7 µM with BT-549 breast; 0.609 µM with CAKI-1 renal; 3.46 µM with DU-145 prostate; 0.502 µM in the experiment on KM12 colon; 2.12 µM with MDA-MB-231 breast; 0.597 µM in the experiment on OVCAR-3 ovarian. Besides, the GI50 in the experiment on SK-OV-3 ovarian was 1.59 µM; in the experiment with SNB-75 CNS, 0.189 µM; with T-47D breast, 1.59 µM; with U251 CNS, 0.583 µM. In addition, the TGI in the experiment with BT-549 breast was 20.5 µM; in the experiment with CAKI-1 renal, 14.7 µM; in the experiment with DU-145 prostate, 21 µM; in the experiment with KM12 colon, 15.5 µM; in the experiment on MDA-MB-231 breast, 16.9 µM; with OVCAR-3 ovarian, 21.6 µM. For the same compound, the TGI in the experiment with SK-OV-3 ovarian is 33.1 µM; in the experiment on SNB-75 CNS, 0.724 µM; in the experiment on T-47D breast, 26.4 µM; with U251 CNS it was 18.3 µM.

Consider `CC1C=CC(OC(=O)C(C)(O)CCC(O)(C(=O)OC2CC(O)C(C(C)C)CC2(C)O)C(C)C)(C(C)C)CC1` (stereo not given), for which the GI50 in the experiment on BT-549 breast was 0.561 µM; in the experiment on CAKI-1 renal, 0.594 µM; with DU-145 prostate it was 0.272 µM; with KM12 colon it was 0.689 µM; in the experiment on MDA-MB-231 breast it was 0.656 µM; with OVCAR-3 ovarian it was 0.188 µM. Further, the GI50 was 0.799 µM in the experiment with SK-OV-3 ovarian, 0.542 µM in the experiment with SNB-75 CNS, 0.292 µM in the experiment with T-47D breast and 0.582 µM in the experiment on U251 CNS. Also, the TGI worked out at 1.22 µM in the experiment with BT-549 breast; 1.2 µM in the experiment with CAKI-1 renal; 0.608 µM in the experiment on DU-145 prostate; 1.45 µM in the experiment on KM12 colon; 1.36 µM with MDA-MB-231 breast; 0.409 µM with OVCAR-3 ovarian. For the same compound, the TGI in the experiment on SK-OV-3 ovarian was 4.1 µM; in the experiment with SNB-75 CNS, 1.79 µM; in the experiment with T-47D breast, 1.81 µM; in the experiment on U251 CNS, 1.32 µM.

In the case of `CCc1c(C)nc2sc3c(N)ncnc3c2c1C`, the GI50 with BT-549 breast is > 25 µM; in the experiment with CAKI-1 renal, > 19.6 µM; in the experiment with DU-145 prostate, > 25 µM; in the experiment with KM12 colon, > 25 µM; in the experiment on MDA-MB-231 breast it was > 25 µM; in the experiment on OVCAR-3 ovarian, > 25 µM. Besides, the GI50 in the experiment on SK-OV-3 ovarian, in the experiment on SNB-75 CNS, with T-47D breast and in the experiment with U251 CNS was > 25 µM in each case. Moreover, the TGI in the experiment with BT-549 breast, with CAKI-1 renal, in the experiment on DU-145 prostate, in the experiment with KM12 colon, with MDA-MB-231 breast and in the experiment with OVCAR-3 ovarian was > 25 µM each time. The TGI in the experiment with SK-OV-3 ovarian, with SNB-75 CNS, with T-47D breast and with U251 CNS was > 25 µM throughout.

With `COc1ccc(Nc2ccnc(N3CCN(c4ccnc5cc(Cl)ccc45)CC3)n2)cc1`, the GI50 in the experiment on BT-549 breast is 1.16 µM; in the experiment with CAKI-1 renal, 0.576 µM; in the experiment with DU-145 prostate, 2.59 µM; in the experiment on KM12 colon, 1.01 µM; in the experiment on MDA-MB-231 breast it was 1.51 µM; in the experiment on OVCAR-3 ovarian, 0.729 µM. In addition, the GI50 in the experiment with SK-OV-3 ovarian is 2.62 µM; in the experiment on SNB-75 CNS, 1.4 µM; in the experiment with T-47D breast, 1.39 µM; in the experiment on U251 CNS, 1.17 µM. Also, the TGI in the experiment with BT-549 breast was 3.72 µM; with CAKI-1 renal, 3.92 µM; with DU-145 prostate, > 30.5 µM; in the experiment on KM12 colon, 4.16 µM; in the experiment with MDA-MB-231 breast, > 29.8 µM; with OVCAR-3 ovarian, 15.4 µM. The TGI is > 100 µM in the experiment with SK-OV-3 ovarian, 4.82 µM in the experiment with SNB-75 CNS, 6.99 µM with T-47D breast and 11.5 µM with U251 CNS.

For the compound `C[C@@H]1Cc2cc(O)ccc2[C@H]2CC[C@]3(C)/C(=C/COCCN(C)C)CC[C@H]3[C@H]12` (tested in a mixture with another compound), the GI50 is 0.294 µM in the experiment with BT-549 breast; 0.213 µM with CAKI-1 renal; 0.142 µM in the experiment with DU-145 prostate; 0.309 µM with KM12 colon; 0.833 µM in the experiment on MDA-MB-231 breast; 0.18 µM in the experiment on OVCAR-3 ovarian. Also, the GI50 was 0.228 µM in the experiment on SK-OV-3 ovarian, 0.235 µM in the experiment with SNB-75 CNS, 0.122 µM in the experiment on T-47D breast and 0.216 µM in the experiment with U251 CNS. Further, the TGI with BT-549 breast was determined as 0.8 µM; in the experiment on CAKI-1 renal it was 0.578 µM; in the experiment on DU-145 prostate, 0.276 µM; in the experiment with KM12 colon, 0.895 µM; in the experiment on MDA-MB-231 breast, 3.15 µM; in the experiment with OVCAR-3 ovarian, 0.344 µM. The TGI was 0.62 µM with SK-OV-3 ovarian, 0.755 µM with SNB-75 CNS, 0.679 µM in the experiment with T-47D breast and 0.528 µM in the experiment on U251 CNS.

Turning to `CC(C)C[C@H](NC(=O)CCn1ccc2ccccc2c1=O)B(O)O`, the GI50 in the experiment with BT-549 breast was 2.21 µM; in the experiment with CAKI-1 renal, 2.93 µM; with DU-145 prostate it was 9.13 µM; in the experiment on KM12 colon, 7.51 µM; with MDA-MB-231 breast, 9.45 µM; in the experiment with OVCAR-3 ovarian, 1.97 µM. For the same compound, the GI50 was 4.72 µM with SK-OV-3 ovarian, 2.94 µM with SNB-75 CNS, 3.71 µM with T-47D breast and 4.23 µM in the experiment with U251 CNS. The TGI in the experiment on BT-549 breast was 17.1 µM; in the experiment with CAKI-1 renal it was 27 µM; in the experiment with DU-145 prostate, > 100 µM; in the experiment with KM12 colon it was 29.8 µM; in the experiment on MDA-MB-231 breast it was 59.3 µM; in the experiment with OVCAR-3 ovarian, 5.66 µM. The TGI in the experiment with SK-OV-3 ovarian was 81.3 µM; with SNB-75 CNS it was 15.9 µM; with T-47D breast it was 29.3 µM; in the experiment with U251 CNS it was > 100 µM.
